Literature values in US20090317451A1, “PRESSURE-SENSITIVE ADHESIVE FOR SKIN SURFACE AND/OR TRANSDERMAL SUBSTANCE DELIVERY” (priority 2008, published 2009).
Where a name gives a salt, the structure may show the parent alone.

Conditions: solvent(s) in which soluble; Merck 12th edition or other reference

Row | Compound | Reported Solubility
1 | CC(=O)Oc1ccccc1C(=O)O [Aspirin, acetylsalicylic acid] | Alcohol
2 | CCOC(=O)c1ccc(N)cc1 [Benzocaine] | Alcohol
3 | CC12CCC(CC1=O)C2(C)C (centres unmarked) [Camphor] | Alcohol
4 | COc1cc(/C=C/C(=O)CC(=O)/C=C/c2ccc(O)c(OC)c2)ccc1O [Curcumin] | Alcohol
5 | CC[C@H]1OC(=O)[C@H](C)[C@@H](O[C@H]2C[C@@](C)(OC)[C@@H](O)[C@H](C)O2)[C@H](C)[C@@H](O[C@@H]2O[C@H](C)C[C@H](N(C)C)[C@H]2O)[C@](C)(O)C[C@@H](C)C(=O)[C@H](C)[C@@H](O)[C@]1(C)O [Erythromycin hydrate] | Alcohol
6 | CC(=O)OCC(CCn1cnc2cnc(N)nc21)COC(C)=O [Famciclovir] | Alcohol
7 | CS(C)(=O)=O [MSM, dimethyl sulfone, dimethyl sulfone] | Alcohol
8 | Cc1ncc([N+](=O)[O-])n1CCO [Netronidazole] | Water, alcohol
9 | CC(=O)O[C@H]1C(=O)[C@@]2(C)[C@H]([C@H](OC(=O)c3ccccc3)[C@]3(O)C[C@H](OC(=O)[C@H](O)[C@@H](NC(=O)c4ccccc4)c4ccccc4)C(C)=C1C3(C)C)[C@]1(OC(C)=O)CO[C@@H]1C[C@@H]2O [Paclitaxel] | Alcohol
10 | CC[C@@H]1C(=O)OC[C@@H]1Cc1cncn1C [Pilocarpine] | Alcohol
11 | CC(CN1c2ccccc2Sc2ccccc21)N(C)C (centres unmarked) [Promethazine] | Alcohol
12 | CN(C/C=C/C#CC(C)(C)C)Cc1cccc2ccccc12 [Terbinafinehydrochloride] | Alcohol

Further lines, results first:

Row | Reported Solubility | Compound
13 | Alcohol | CC(=O)Nc1ccc(O)cc1 [Acetaminophen]
14 | Alcohol | Nc1nc2c(ncn2COCCO)c(=O)[nH]1 [Acyclovir]
15 | Alcohol | CC(C)(C)NCC(O)c1ccc(O)c(CO)c1 (centres unmarked) [Albuterol]
16 | Alcohol | Cc1cc(C2CCCCC2)n(O)c(=O)c1 [Ciclopirox]
17 | Alcohol | COc1cccc2c1C(=O)c1c(O)c3c(c(O)c1C2=O)C[C@@](O)(C(=O)CO)C[C@@H]3O[C@H]1C[C@H](N)[C@H](O)[C@H](C)O1 [Doxorubicin]
18 | Alcohol | Oc1ccc(C2CNCCc3c2cc(O)c(O)c3Cl)cc1 (centres unmarked) [Fenoldopam]
19 | Alcohol | O=C(CCCN1CCC(O)(c2ccc(Cl)cc2)CC1)c1ccc(F)cc1 [Haloperidol]
20 | Alcohol | CC(C)Cc1ccc(C(C)C(=O)O)cc1 (centres unmarked) [Ibuprofen]
21 | Glycerol + | CC(C)Cn1cnc2c(N)nc3ccccc3c21 [Imiquimod]
22 | Alcohol | CC(=O)N1CCN(c2ccc(OCC3COC(Cn4ccnc4)(c4ccc(Cl)cc4Cl)O3)cc2)CC1 (centres unmarked) [Ketoconazole]
23 | Alcohol | C#C[C@]1(OC(C)=O)CC[C@H]2[C@@H]3CCC4=CC(=O)CC[C@@H]4[C@H]3CC[C@@]21C [Norethindrone acetate]
24 | Water | Nc1nc2c(ncn2CCC(CO)CO)c(=O)[nH]1 [Penciclovir]

Same assay, conditions: solvent(s) in which soluble; Merck 12th edition or other reference; listed as Liquimod

Row | Reported Solubility | Compound
25 | Alcohol | CC(C)Cn1cnc2c(N)nc3ccccc3c21 [Imiquimod]

Conditions: in glycerol; Merck 12th edition #886

Row | decomposition by moisture | Compound
26 | glycerol hinders the decomposition | CC(=O)Oc1ccccc1C(=O)O [Aspirin, acetylsalicylic acid]
